Results: PubChem BioAssay AID2060486 (Molecular Pharmacology Branch, DTP, NCI, 2025)

Tested on: IGROV1 complex spheroids (HUVEC, MSC), viability % test/control
Test: Anticancer human tumor IGROV1 cell line growth inhibition [GQUAD];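 note: spheroids exposed to compounds for 7 days before readout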;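 for viability, T/C: 100% = DMSO vehicle control viability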
Conditions: for IC50: curve of first compound; for viability, T/C: stronger effect = lower value
Outline: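 Multi-cell-type spheroids of tumor cells with HUVEC and mesenchymal stem cells, treated with drug combinations. Concentrations descend in half-log steps from near clinical Cmax, or from 10 microM where Cmax is unknown; viability read-out.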

[1] = second compound 0.0316 µM, first compound 0.0316 µM
[2] = second compound 0.0316 µM, first compound 0.1 µM
[3] = second compound 0.0316 µM, first compound 0.316 µM
[4] = second compound 0.0316 µM, first compound 1 µM
[5] = second compound 0.0316 µM, first compound 3.16 µM
[6] = second compound 0.0316 µM, first compound 10 µM
[7] = second compound 0.1 µM, first compound 0.0316 µM
[8] = second compound 0.1 µM, first compound 0.1 µM
[9] = second compound 0.1 µM, first compound 0.316 µM
[10] = second compound 0.1 µM, first compound 1 µM
[11] = second compound 0.1 µM, first compound 3.16 µM
[12] = second compound 0.1 µM, first compound 10 µM
[13] = second compound 0.316 µM, first compound 0.0316 µM
[14] = second compound 0.316 µM, first compound 0.1 µM
[15] = second compound 0.316 µM, first compound 0.316 µM
[16] = second compound 0.316 µM, first compound 1 µM
[17] = second compound 0.316 µM, first compound 3.16 µM
[18] = second compound 0.316 µM, first compound 10 µM
[19] = second compound 1 µM, first compound 0.0316 µM
[20] = second compound 1 µM, first compound 0.1 µM
[21] = second compound 1 µM, first compound 0.316 µM
[22] = second compound 1 µM, first compound 1 µM
[23] = second compound 1 µM, first compound 3.16 µM
[24] = second compound 1 µM, first compound 10 µM
[25] = second compound 3.16 µM, first compound 0.0316 µM
[26] = second compound 3.16 µM, first compound 0.1 µM
[27] = second compound 3.16 µM, first compound 0.316 µM
[28] = second compound 3.16 µM, first compound 1 µM
[29] = second compound 3.16 µM, first compound 3.16 µM
[30] = second compound 3.16 µM, first compound 10 µM
[31] = second compound 10 µM, first compound 0.0316 µM
[32] = second compound 10 µM, first compound 0.1 µM
[33] = second compound 10 µM, first compound 0.316 µM
[34] = second compound 10 µM, first compound 1 µM
[35] = second compound 10 µM, first compound 3.16 µM
[36] = second compound 10 µM, first compound 10 µM

CC(C)n1c(=O)n(C)c2cnc3cc(F)c(-c4ccc(OCCCN5CCCCC5)nc4)cc3c21 + Cc1[nH]c2ccc(F)cc2c1-c1nc2c3cccnc3c3ncccc3c2[nH]1
IC50 (second compound 0.0316 µM): 3.52 µM | IC50 (second compound 0.1 µM): 4.1 µM | IC50 (second compound 0.316 µM): 2.08 µM | IC50 (second compound 1 µM): < 0.0316 µM | IC50 (second compound 3.16 µM): < 0.0316 µM | IC50 (second compound 10 µM): < 0.0316 µM | viability, T/C [1]: 99.9% | viability, T/C [2]: 84.8% | viability, T/C [3]: 92.5% | viability, T/C [4]: 69% | viability, T/C [5]: 55.5% | viability, T/C [6]: 18.6% | viability, T/C [7]: 81.2% | viability, T/C [8]: 91.8% | viability, T/C [9]: 82.6% | viability, T/C [10]: 62.3% | viability, T/C [11]: 65.6% | viability, T/C [12]: 20.5% | viability, T/C [13]: 76.4% | viability, T/C [14]: 88.8% | viability, T/C [15]: 78% | viability, T/C [16]: 59% | viability, T/C [17]: 44.5% | viability, T/C [18]: 12.2% | viability, T/C [19]: 4% | viability, T/C [20]: 4.91% | viability, T/C [21]: 5.53% | viability, T/C [22]: 4.22% | viability, T/C [23]: 5.34% | viability, T/C [24]: 3.26% | viability, T/C [25]: 4.58% | viability, T/C [26]: 4.72% | viability, T/C [27]: 4.85% | viability, T/C [28]: 5.73% | viability, T/C [29]: 4.75% | viability, T/C [30]: 1.86% | viability, T/C [31]: 4.57% | viability, T/C [32]: 6.24% | viability, T/C [33]: 5.89% | viability, T/C [34]: 5.99% | viability, T/C [35]: 4.07% | viability, T/C [36]: 2.35%

O=C(c1cc(Cc2n[nH]c(=O)c3ccccc23)ccc1F)N1CCN(C(=O)C2CC2)CC1 + Cc1[nH]c2ccc(F)cc2c1-c1nc2c3cccnc3c3ncccc3c2[nH]1
IC50 (second compound 0.0316 µM): 5.34 µM | IC50 (second compound 0.1 µM): 3.12 µM | IC50 (second compound 0.316 µM): 5.53 µM | IC50 (second compound 1 µM): < 0.0316 µM | IC50 (second compound 3.16 µM): < 0.0316 µM | IC50 (second compound 10 µM): < 0.0316 µM | viability, T/C [1]: 97.1% | viability, T/C [2]: 82.3% | viability, T/C [3]: 94.9% | viability, T/C [4]: 66.5% | viability, T/C [5]: 72.8% | viability, T/C [6]: 31% | viability, T/C [7]: 89.1% | viability, T/C [8]: 83.2% | viability, T/C [9]: 69.4% | viability, T/C [10]: 57.3% | viability, T/C [11]: 62.3% | viability, T/C [12]: 23.5% | viability, T/C [13]: 72.9% | viability, T/C [14]: 82.4% | viability, T/C [15]: 74% | viability, T/C [16]: 82.3% | viability, T/C [17]: 69.8% | viability, T/C [18]: 28% | viability, T/C [19]: 4.09% | viability, T/C [20]: 3.9% | viability, T/C [21]: 4.15% | viability, T/C [22]: 4.33% | viability, T/C [23]: 6.04% | viability, T/C [24]: 4.53% | viability, T/C [25]: 3.99% | viability, T/C [26]: 3.97% | viability, T/C [27]: 3.46% | viability, T/C [28]: 3.87% | viability, T/C [29]: 4.83% | viability, T/C [30]: 3.88% | viability, T/C [31]: 4.17% | viability, T/C [32]: 3.02% | viability, T/C [33]: 3.67% | viability, T/C [34]: 4.06% | viability, T/C [35]: 5.08% | viability, T/C [36]: 4.55%
